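Five compound concentrations were applied to cells in 96-well plates for 48 hours; endpoints were derived by simple linear interpolation of the resulting dose-response curve. GI50: concentration for 50% inhibition of growth.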 Calls of active or inactive are those of the source. Rule as the data show it: active = GI50 up to about 1.1 µM and inactive = higher.
What was measured:
Test in all cases: growth of human tumour cells (NCI), 48 h
BT-549 = system: BT-549
CAKI-1 = system: CAKI-1
CCRF-CEM = system: CCRF-CEM
EKVX = system: EKVX
HOP-62 = system: HOP-62
LOX IMVI = system: LOX IMVI
MDA-MB-231 = system: MDA-MB-231
MDA-N = system: MDA-N
MOLT-4 = system: MOLT-4
Malme-3M = system: Malme-3M
NCI/ADR-RES = system: NCI/ADR-RES
OVCAR-8 = system: OVCAR-8
RXF 393 = system: RXF 393
SK-MEL-2 = system: SK-MEL-2
SK-MEL-5 = system: SK-MEL-5
SN12C = system: SN12C
SNB-75 = system: SNB-75
SR = system: SR
T47D = system: T47D
U-251 = system: U-251

For `COc1ccc(-c2cc(=O)c3c(O)c(OC)c(OC)c(OC)c3o2)cc1` [GARDENIN B], the GI50 (BT-549) was 16.2 µM (inactive), the GI50 (CAKI-1) was > 100 µM (inactive) and the GI50 (CCRF-CEM) was > 100 µM (inactive). The GI50 (EKVX) was > 100 µM (inactive), the GI50 (HOP-62) was 24.5 µM (inactive) and the GI50 (LOX IMVI) was 17.6 µM (inactive). For the same compound, the GI50 (MDA-MB-231) was 12.6 µM (inactive), the GI50 (MDA-N) was 0.433 µM (active) and the GI50 (MOLT-4) was > 100 µM (inactive). For the same compound, the GI50 (Malme-3M) was > 28.6 µM (inactive), the GI50 (NCI/ADR-RES) was > 100 µM (inactive) and the GI50 (OVCAR-8) was > 100 µM (inactive). For the same compound, the GI50 (RXF 393) was 10.6 µM (inactive), the GI50 (SK-MEL-2) was 12.8 µM (inactive) and the GI50 (SK-MEL-5) was 5.52 µM (inactive). For the same compound, the GI50 (SN12C) was > 100 µM (inactive), the GI50 (SNB-75) was 10.2 µM (inactive) and the GI50 (SR) was 0.39 µM (active). For the same compound, the GI50 (T47D) was 26.9 µM (inactive) and the GI50 (U-251) was 15.5 µM (inactive).

In the case of `COC(=O)c1ccc(NCc2cc(O)c3ccccc3c2O)cc1`, the GI50 (BT-549) is reported as 16.6 µM (inactive), the GI50 (CAKI-1) is reported as 6.17 µM (inactive) and the GI50 (CCRF-CEM) is reported as 2.86 µM (inactive). For the same compound, the GI50 (EKVX) was 18.3 µM (inactive), the GI50 (HOP-62) was 14.4 µM (inactive) and the GI50 (LOX IMVI) was 3.48 µM (inactive). The GI50 (MDA-MB-231) was 2.17 µM (inactive), the GI50 (MDA-N) was 2.15 µM (inactive) and the GI50 (MOLT-4) was 2.81 µM (inactive). For the same compound, the GI50 (Malme-3M) was 2.56 µM (inactive), the GI50 (NCI/ADR-RES) was 27.1 µM (inactive) and the GI50 (OVCAR-8) was 24.4 µM (inactive). For the same compound, the GI50 (RXF 393) was 16.3 µM (inactive), the GI50 (SK-MEL-2) was 18.2 µM (inactive) and the GI50 (SK-MEL-5) was 1.51 µM (inactive). For the same compound, the GI50 (SN12C) was 7.13 µM (inactive), the GI50 (SNB-75) was 22.5 µM (inactive) and the GI50 (SR) was 4.54 µM (inactive). The GI50 (T47D) was 5.12 µM (inactive) and the GI50 (U-251) was 16.7 µM (inactive).

`Cc1ccc(-c2ccc3c(c2)Sc2ccccc2O3)n1C` was tested, and the GI50 (BT-549) was 3.29 µM (inactive), the GI50 (CAKI-1) was 0.303 µM (active) and the GI50 (CCRF-CEM) was 0.213 µM (active). For the same compound, the GI50 (EKVX) was 0.618 µM (active), the GI50 (HOP-62) was 0.614 µM (active) and the GI50 (LOX IMVI) was 0.524 µM (active). The GI50 (MDA-MB-231) was 1.19 µM (inactive), the GI50 (MDA-N) was 0.0285 µM (active) and the GI50 (MOLT-4) was 0.822 µM (active). The GI50 (Malme-3M) was 0.0984 µM (active), the GI50 (NCI/ADR-RES) was 0.206 µM (active) and the GI50 (OVCAR-8) was 0.693 µM (active). For the same compound, the GI50 (RXF 393) was 0.283 µM (active), the GI50 (SK-MEL-2) was 0.13 µM (active) and the GI50 (SK-MEL-5) was 0.356 µM (active). For the same compound, the GI50 (SN12C) was 0.306 µM (active), the GI50 (SNB-75) was 0.238 µM (active) and the GI50 (SR) was 0.0675 µM (active). The GI50 (T47D) was > 100 µM (inactive) and the GI50 (U-251) was 0.329 µM (active).

Reference: ChEMBL document CHEMBL1201862, “PubChem BioAssay data set” (2004)
